Assay results reported in patent US20030152628A1, “Dual release formulation comprising levodopa ethyl ester and a decarboxylase inhibitor in an immediate-release layer with levodopa ethyl ester in a controlled release core” (priority 2001, published 2003).
Converted amounts (≈) assume the structure as drawn.

Key:
[1] = Solubility at ˜22-24° C. versus pH; format: physicochemical
Source text: However, carbidopa and LDEE, examples of two active materials in the composition of the present invention, have different chemical and physical properties and contrasting solubility characteristics especially in acid conditions, i.e., in the gastrointestinal tract (see Table 1).

[2] = Solubility and stability properties of the active materials

| SMILES | Solubility ([1]; pH 1.0) [mg/mL] | Solubility ([1]; pH 5.0) [mg/mL] | sensitivity to moisture / hydrolysis [2] | stability at room temperature ([2]; kept under refrigeration (2-8° C.)) | solubility in water [2] |
| --- | --- | --- | --- | --- | --- |
| CCOC(=O)[C@@H](N)Cc1ccc(O)c(O)c1 [LDEE, levodopa ethyl ester] | 2200 (≈ 9770 mM) | 1700 (≈ 7550 mM) | highly sensitive to moisture, undergoes hydrolysis easily | not stable at room temperature |  |
| C[C@@](Cc1ccc(O)c(O)c1)(NN)C(=O)O [Carbidopa, carbidopa, reference compound] |  |  |  |  | slightly soluble |
